Assay [1] addresses T1, MAPKAP-K1a (Rattus norvegicus, UniProt Q63531).
T1 construct: made in house; host or cells: human embryonic kidney 293 cells, TPA-stimulated
The experiment in a line: Substrate phosphorylation kinetics with GST-MAPKAP-K1a. The class given is biochemical. On the procedure:
(§1) FIG. 8. […] (A) Comparison of the substrate specificities of MSK1, MAPKAP-K1a and MAPKAP-K1b towards the indicated peptides and CREB. Phosphorylation and analysis was carried out as described in Materials and Methods. The standard errors for all reported kinetic constants were within <+20% (SEM), and the data is reported as mean values for 2 independent experiments. The Vmax values are reported as a percentage of the value obtained using Crosstide ([…], peptide 1 (SEQ ID NO:16)) as a substrate. The peptide […] (SEQ ID NO:18) corresponding to residues 126–136 of CREB is termed CREBtide. The serine residues shown in bold correspond to the phosphorylated serine residues on the peptides. […] (B) GST-MSK1 (solid bars), GST-MAPKAPK-1a (open bars), MAPKAP-K-1b (speckled bars) or GST-MAPKAP-K2 (diagonal bars) were assayed with the indicated substrates. […] The phosphorylation of CREB by MAPKAP-K2 shown in the figure is corrected to show only the contribution of Ser133 phosphorylation to the total incorporation of phosphate into CREB. […]
(§2) Phosphorylation of CREB and HSP27 by MSK1 and MAPKAP-K1a/b (see FIG. 8). MSK1 and MAPKAP-K1a expressed as GST fusion proteins were purified from TPA stimulated 293 cells (FIG. 3) and MAPKAP-K1b was purified from rabbit skeletal muscle (Sutherland et al., 1993). […] The ^32P-radioactivity incorporated was then determined by Cerenkov counting. […]

Assay [2] addresses T2, MAPKAP-K1b (Oryctolagus cuniculus, UniProt A0A5F9C4L9).
T2 construct: MAPKAP-K1b was purified from rabbit skeletal muscle (Sutherland et al., 1993); from tissue; host or cells: rabbit skeletal muscle
As to the kind of experiment: Substrate phosphorylation kinetics with MAPKAP-K1b. The class given is biochemical, rabbit. On the procedure: as §1, §2

Assay [3] addresses MSK1 (Homo sapiens, UniProt O75582). The experiment in a line: Substrate phosphorylation kinetics with GST-MSK1. The class given is biochemical. Also on record: generate a full length FLAG-MSK 1 construct in the pCMV5 mammalian expression; made in house; host or cells: human embryonic kidney 293 cells (TPA-stimulated before lysis). On the procedure:
FIG. 8. MSK1 phosphorylates CREB at Ser133. (A) Comparison of the substrate specificities of MSK1, MAPKAP-K1a and MAPKAP-K1b towards the indicated peptides and CREB. Phosphorylation and analysis was carried out as described in Materials and Methods. The standard errors for all reported kinetic constants were within <+20% (SEM), and the data is reported as mean values for 2 independent experiments. The Vmax values are reported as a percentage of the value obtained using Crosstide ([…], peptide 1 (SEQ ID NO:16)) as a substrate. The peptide […] (SEQ ID NO:18) corresponding to residues 126–136 of CREB is termed CREBtide. The serine residues shown in bold correspond to the phosphorylated serine residues on the peptides. […] 75% of the radioactivity applied to the column was recovered from the major ^32P-containing peptide at 13% acetonitrile (the remainder of the radioactivity eluted as numerous minor peaks). […]
Phosphorylation of CREB and HSP27 by MSK1 and MAPKAP-K1a/b (see FIG. 8). MSK1 and MAPKAP-K1a expressed as GST fusion proteins were purified from TPA stimulated 293 cells (FIG. 3) and MAPKAP-K1b was purified from rabbit skeletal muscle (Sutherland et al., 1993). […] The ^32P-radioactivity incorporated was then determined by Cerenkov counting. […] The supernatant, containing 95% of the ^32P-radioactivity, was chromatographed on a Vydac C18 column as described in the legend to FIG. 8. […]

Assay [4] concerns MSK1. As to the kind of experiment: Activation of transfected Flag-MSK1 in 293 cells. The class given is cell-based, human. The note with it: stimulation with the agonist. On the procedure:
FIG. 6. Effect of mutation of MSK1 on activation by TPA and UV in 293 cells. 293 cells were transiently transfected with DNA constructs expressing Flag epitope tagged wild type MSK1, N-terminal (NT) “kinase dead” MSK1 and C-terminal (CT) “kinase dead” MSK1. […] The cells were lysed and the MSK1 was immunoprecipitated from the lysates and assayed with Crosstide.
Transfection of MSK1 into 293 cells. 293 cells were cultured on 10 cm diameter dishes and transfected with the pCMV5 vector encoding the Flag epitope tagged MSK1 constructs using a modified calcium phosphate method (Alessi et al., 1996b). 24 h post-transfection, the cells were deprived of serum for 16 h, stimulated with TPA or exposed to UV radiation, the cells were then lysed in 1 ml of ice cold Buffer A, centrifuged at 13,000×g for 5 min, and the Flag tagged MSK1 protein immunoprecipitated from aliquots of lysate (containing 25 μg protein) using 2 μg of FLAG antibody coupled to 5 (1 of Protein G-Sepharose.
Immunoprecipitates were incubated, washed and assayed for MSK1 activity as described above.

Assay [5] has as its system MAPKAP-K1a. The experiment in a line: Activation of overexpressed MAPKAP-K1a in 293 cells. The class given is cell-based, human. The note with it: TPA stimulation, data not shown. From the text: FIG. 7. MSK1 is mainly localised in the nucleus of cells and MAPKAP-K1a in the cytosol. […] Data is from three independent experiments. For MSK1 controls n=9, 9 and 14; for TPA n+10, 11 and 15. For MAPKAP-K1a controls total n=22; for TPA total n=9 (excluding cells with extensive clumps of immunoreactive material in the cytoplasm). Bars represent standard error of the mean calculated according to Cochran (1953). (C) Selected samples for MSK1 (C, unstimulated and D, TPA) and for MAPKAP-K1a (E, unstimulated) are shown to illustrate structures and labelling distributions. Bar is 500 nm.
MSK1 is localised in nuclei and MAPKAP-K1a in the cytoplasm. The subcellular location of wild type MSK1 that was overexpressed in 293 cells was investigated by quantitative immunoelectron microscopy (FIG. 7). MSK1 was largely located in the nucleus of unstimulated cells. The density of MSK1 in the nuclear compartment was 12 to 30-fold higher than in the cytoplasm (FIGS. 7A and 7C). […] Consistent with this observation MAPKAP-K1a, when overexpressed in cells, was largely localised in the cytoplasm (FIG. 7B). Moreover, no significant translocation of MAPKAP-K1a to the nucleus was observed following TPA stimulation of cells (FIGS. 7B and 7E) which induces 100-fold activation of this kinase (data not shown).

The test system of assay [6] is MAPKAP-K1. As to the kind of experiment: NGF-induced activation of MAPKAP-K1 in PC12 cells.

Peptide text beside a SMILES is read from it.

Sequence of MSK1 (Homo sapiens, UniProt O75582) (O75582 whole entry): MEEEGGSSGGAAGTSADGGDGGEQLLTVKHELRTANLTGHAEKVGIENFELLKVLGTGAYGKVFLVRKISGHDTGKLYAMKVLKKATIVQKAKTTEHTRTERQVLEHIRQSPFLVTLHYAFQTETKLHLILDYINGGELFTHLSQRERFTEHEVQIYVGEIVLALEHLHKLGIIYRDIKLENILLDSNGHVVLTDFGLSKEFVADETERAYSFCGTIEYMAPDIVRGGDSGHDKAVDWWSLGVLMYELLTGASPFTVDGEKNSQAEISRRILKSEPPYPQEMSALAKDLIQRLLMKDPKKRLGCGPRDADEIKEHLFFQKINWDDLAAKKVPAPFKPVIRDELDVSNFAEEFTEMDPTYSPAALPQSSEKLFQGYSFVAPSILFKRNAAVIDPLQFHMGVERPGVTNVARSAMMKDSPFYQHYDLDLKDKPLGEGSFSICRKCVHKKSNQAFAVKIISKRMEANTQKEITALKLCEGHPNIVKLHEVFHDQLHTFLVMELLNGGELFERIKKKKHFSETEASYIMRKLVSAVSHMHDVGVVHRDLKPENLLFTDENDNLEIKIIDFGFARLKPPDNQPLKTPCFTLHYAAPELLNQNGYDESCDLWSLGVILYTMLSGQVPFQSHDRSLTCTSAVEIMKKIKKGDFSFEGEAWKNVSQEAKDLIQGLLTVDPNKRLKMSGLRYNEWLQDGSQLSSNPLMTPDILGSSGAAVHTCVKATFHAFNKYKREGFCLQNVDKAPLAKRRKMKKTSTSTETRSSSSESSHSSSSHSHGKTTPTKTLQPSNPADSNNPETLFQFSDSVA
T1 sequence (Q63531 whole entry): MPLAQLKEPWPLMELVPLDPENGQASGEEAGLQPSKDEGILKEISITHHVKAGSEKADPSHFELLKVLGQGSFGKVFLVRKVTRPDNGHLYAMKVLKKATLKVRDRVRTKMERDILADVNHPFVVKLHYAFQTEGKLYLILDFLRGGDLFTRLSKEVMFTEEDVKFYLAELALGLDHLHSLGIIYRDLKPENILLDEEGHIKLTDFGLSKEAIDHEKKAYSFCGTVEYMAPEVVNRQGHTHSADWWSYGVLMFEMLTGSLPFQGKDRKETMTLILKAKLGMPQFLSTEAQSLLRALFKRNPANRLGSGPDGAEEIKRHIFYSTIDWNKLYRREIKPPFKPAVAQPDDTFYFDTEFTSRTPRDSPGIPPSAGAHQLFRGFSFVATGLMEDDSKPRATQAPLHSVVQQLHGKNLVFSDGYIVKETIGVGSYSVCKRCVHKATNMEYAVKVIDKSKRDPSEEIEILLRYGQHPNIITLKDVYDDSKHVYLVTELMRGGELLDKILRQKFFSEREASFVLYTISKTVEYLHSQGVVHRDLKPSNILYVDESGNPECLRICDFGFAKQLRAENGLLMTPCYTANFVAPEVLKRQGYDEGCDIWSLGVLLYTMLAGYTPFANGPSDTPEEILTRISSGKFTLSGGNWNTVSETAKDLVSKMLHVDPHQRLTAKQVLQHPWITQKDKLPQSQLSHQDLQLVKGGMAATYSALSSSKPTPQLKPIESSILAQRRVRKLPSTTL
T2 sequence (A0A5F9C4L9 1-740): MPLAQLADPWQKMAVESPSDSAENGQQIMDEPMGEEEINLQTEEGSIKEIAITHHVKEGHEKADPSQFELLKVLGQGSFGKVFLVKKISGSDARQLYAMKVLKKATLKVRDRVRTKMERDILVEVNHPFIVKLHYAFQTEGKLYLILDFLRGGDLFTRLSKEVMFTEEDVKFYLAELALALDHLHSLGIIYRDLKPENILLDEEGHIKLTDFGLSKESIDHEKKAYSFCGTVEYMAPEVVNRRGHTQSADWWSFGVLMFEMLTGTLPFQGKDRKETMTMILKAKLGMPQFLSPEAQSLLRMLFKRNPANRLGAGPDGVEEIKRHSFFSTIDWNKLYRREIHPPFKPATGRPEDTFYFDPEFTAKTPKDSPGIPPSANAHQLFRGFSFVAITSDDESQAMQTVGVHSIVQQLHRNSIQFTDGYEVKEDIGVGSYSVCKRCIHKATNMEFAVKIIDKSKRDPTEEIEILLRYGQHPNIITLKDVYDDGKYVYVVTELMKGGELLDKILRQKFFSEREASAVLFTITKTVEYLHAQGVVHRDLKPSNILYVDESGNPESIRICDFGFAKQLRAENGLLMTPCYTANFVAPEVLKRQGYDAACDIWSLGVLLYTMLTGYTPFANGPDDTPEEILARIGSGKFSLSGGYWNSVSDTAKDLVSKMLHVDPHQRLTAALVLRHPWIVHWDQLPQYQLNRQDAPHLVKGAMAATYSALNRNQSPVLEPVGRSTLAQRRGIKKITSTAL

With `CC(C)C[C@H](NC(=O)[C@@H](NC(=O)[C@H](CCCNC(=N)N)NC(=O)[C@H](CC(N)=O)NC(=O)[C@H](CCCNC(=N)N)NC(=O)[C@H](CCCCN)NC(=O)[C@@H](N)CCCCN)[C@@H](C)O)C(=O)N[C@@H](CO)C(=O)N[C@H](C(=O)N[C@@H](C)C(=O)O)C(C)C` (H-KKRNRTLSVA-OH), the “Km for phosphorylation by MAPKAP-K1a” value in assay [1] was “almost identical Km and Vmax values as for Crosstide”. In addition, in assay [2], the “Km for phosphorylation by MAPKAP-K1b” value was “almost identical Km and Vmax values as for Crosstide”.

Usually Km stands for the concentration of substrate that gives half-maximal velocity. Regarding `CC[C@H](C)[C@H](NC(=O)[C@@H](N)CCC(=O)O)C(=O)N[C@@H](CC(C)C)C(=O)N[C@@H](CO)C(=O)N[C@@H](CCCNC(=N)N)C(=O)N[C@@H](CCCNC(=N)N)C(=O)N1CCC[C@H]1C(=O)N[C@@H](CO)C(=O)N[C@@H](Cc1ccc(O)cc1)C(=O)N[C@@H](CCCNC(=N)N)C(=O)N[C@@H](CCCCN)C(=O)O` [CREBtide] (H-EILSRRPSYRK-OH), in assay [3], the Km is under 100 nM. Turning to `C[C@H](NC(=O)[C@H](Cc1ccccc1)NC(=O)[C@H](CO)NC(=O)[C@H](CO)NC(=O)[C@@H](NC(=O)[C@H](CCCNC(=N)N)NC(=O)[C@@H]1CCCN1C(=O)[C@H](CCCNC(=N)N)NC(=O)CN)[C@@H](C)O)C(=O)N[C@@H](CCC(=O)O)C(=O)NCC(=O)O` [Crosstide] (H-GRPRTSSFAEG-OH), the Km in assay [1], in assay [2] and in assay [3] was 2000 to 3000 nM throughout. On to `CCCCCCCCCCCCCC(=O)O[C@@H]1[C@@H](C)[C@@]2(O)[C@@H](C=C(CO)C[C@]3(O)C(=O)C(C)=C[C@@H]23)[C@@H]2C(C)(C)[C@]12OC(C)=O` [TPA, 12-O-tetradecanoylphorbol 13-acetate], for which, in assay [4], the “activation of transfected wild type MSK1” value was found to be 200 fold. In addition, in assay [5], the “activation of overexpressed MAPKAP-K1a” value was determined as 100 fold.

For the compound “NGF: nerve growth factor used as cell stimulus”, in assay [6], the “activation of MAPKAP-K1 by NGF” value was “five-fold”.

Source of the values: patent publication US7122360B1, “Polypeptides, polynucleotides and uses thereof” (University of Dundee, priority 1998, dated 2006).
